Reference: PMC12794078, “Real-Time Binding Kinetics of Small Molecules to CA IX in Live Suspension Cells Using SPR Microscopy” (ACS Medicinal Chemistry Letters, 2025)
Where two headings read alike, the source gives them in different places.

What was measured:
[1] = target: CA IX on live Ramos B cells (Homo sapiens, UniProt Q16790); experiment: SPRM kinetic titration of small molecules on live Ramos B suspension cells (1:1 kinetic model, 600 ROIs)
Protocol: All cells were maintained in an incubator at 37 °C with 5% CO2 before seeding. For every experiment, cell viability was determined with Trypan blue using a TC20 cell counter (BioRad). PLL precoated SPRM sensor chips were prepared according to manufacturer’s protocol (Gibco, cat. # A3890401). 5K Ramos B cells at 99% viability were gently seeded onto PLL precoated SPRM sensor chips containing 600 μL of Mccoy medium 5A supplemented with 10% FBS and then incubated at 37 °C with 5% CO2. After 72 h of incubation, cells were washed with live cell imaging buffer (A59688DJ) twice and immediately followed by SPRM analysis. […] All experiments were performed with a commercially available Ramos B cell line.
SPRM is highly sensitive to ligand binding events on the cell membrane, which induces dielectric changes that are recorded as sensorgrams. Moreover, its high-resolution diffraction limited optics produces sensorgrams of subcellular response regions, enabling detailed evaluation of binding heterogeneity.
High resolution SPRM measurements were generated by uniformly segmenting the sensing area (600 μm × 450 μm area) into a virtual grid of 600 regions of interest (ROI). For every ROI, a 1:1 kinetic binding interaction model was applied. Bare area ROIs were subtracted as references from the cell area ROIs. The SPRM kinetic analysis results of all ROIs were aggregated for statistical analysis. ImageSPR software (Biosensing Instrument Inc., Tempe AZ) was used to generate the sensorgrams, fitting, and statistical analysis of binding interactions. ROIs that detected a response which fitted well to the kinetic interaction model were collectively plotted onto an isoaffinity scatter plot for statistical analysis of the binding heterogeneity (Figure ). Histograms extracted from the isoaffinity scatter plot were fit with Gaussian distributions to obtain mean values and standard deviations for the association rate (k a), dissociation rate (k d), and equilibrium dissociation constant (KD). Subsequently, those ROIs that observe binding responses were highlighted in red and overlaid onto the SPRM image to more clearly evaluate the extent of cell-specific and nonspecific binding.

CA II = conditions: ex vitro purified CA II, published values; reference number not given; read-out: Reported values CA II; cited from earlier work
[2] = association rate, membrane-bound CA IX, live Ramos B cells
[3] = dissociation rate, membrane-bound CA IX, live Ramos B cells

NS(=O)(=O)c1cc(C(=O)O)c(NCc2ccco2)cc1Cl [Furosemide]
k a, SPRM results for CA IX [1, 2]: 1.10 × 10^03 M^–1 s^–1 | kd, SPRM results for CA IX [1, 3]: 1.16 × 10^–03 s^–1

CN(C)c1cccc2c(S(N)(=O)=O)cccc12 [Dansylamide]
Kd ([1]; Batch 1, live Ramos B cells, experiment/batch 1): 586 nM | Kd ([1]; Batch 2, live Ramos B cells, experiment/batch 2): 542 nM | Kd ([1]; Batch 3, live Ramos B cells, experiment/batch 3): 534 nM | Kd ([1]; SPRM results for CA IX, membrane-bound CA IX, live Ramos B cells, Gaussian mean over ROIs): 586 nM | k a, SPRM results for CA IX [1, 2]: 2.53 × 10^03 M^–1 s^–1 | kd, SPRM results for CA IX [1, 3]: 2.34 × 10^–03 s^–1 | Kd (CA II): 760 nM

Nc1ccc(S(N)(=O)=O)cc1 [Sulfanilamide]
k a, SPRM results for CA IX [1]: 4.40 × 10^03 M^–1 s^–1 | kd, SPRM results for CA IX [1]: 1.39 × 10^–03 s^–1

NS(=O)(=O)c1ccc(C(=O)O)cc1 [4-CBS, 4-Carboxybenzenesulfonamide]
Kd ([1]; Batch 1): 870 nM | Kd ([1]; Batch 2): 1000 nM | Kd ([1]; Batch 3): 780 nM | Kd ([1]; SPRM results for CA IX): 870 nM
